Measured values as given in PMC12705620 (Frontiers in Pharmacology, 2025).
Bridge positions count the residues as written; N and C are the ends. Square brackets hold non-standard residues; d marks the D form. Peptide text beside a SMILES is read from it. I, II: the chains in the order shown. Dap = NC[C@H](N)C(=O)O; Ahx = NCCCCCC(=O)O

Assays:
[1] = system: TNF-α production by unstimulated dTHP-1 macrophages; experiment: TNFα induction by peptides alone in macrophages; format: cell-based, human; settings: 2 µM peptide, 4 h, no endotoxin stimulation, versus unstimulated cells
Experimental: The endotoxin-neutralizing capacity of the peptides was assessed by measuring tumor necrosis factor-alpha (TNF-α) production by dTHP-1 macrophages. dTHP-1 macrophages were stimulated with either lipopolysaccharide (LPS; E. coli O111:B4; 5 ng/mL, Sigma-Aldrich) or UV-inactivated S. aureus JAR060131 (MOI 2; as described in Section 5.2), in the presence or absence of one or 2 µM peptides. Cells were cultured in serum-free RPMI and incubated for 4 h at 37 °C with 5% CO2. Positive controls consisted of cells stimulated with LPS or UV-S. aureus without peptide treatment (no treatment, NT), and unstimulated cells served as negative controls. After stimulation, cell supernatants were collected, and cytokine levels of TNF-α were quantified using human ELISA kits (R&D Systems, USA) according to the manufacturer’s instructions. Each condition was tested in triplicate.

[2] = system: Enterococcus faecium LUH15122; format: cell-based; settings: LUH15122, 18 h

## N=C(N)NCCC[C@H](NC(=O)[C@H](Cc1c[nH]c2ccccc12)NC(=O)[C@H](CCC(N)=O)NC(=O)[C@H](Cc1c[nH]c2ccccc12)NC(=O)[C@H](CCCNC(=N)N)NC(=O)[C@@H](N)CCCNC(=N)N)C(=O)NC[C@H](NC(=O)[C@H](CCCNC(=N)N)NC(=O)[C@H](Cc1c[nH]c2ccccc12)NC(=O)[C@H](CCC(N)=O)NC(=O)[C@H](Cc1c[nH]c2ccccc12)NC(=O)[C@H](CCCNC(=N)N)NC(=O)[C@@H](N)CCCNC(=N)N)C(=O)NCCCCCC(=O)N[C@@H](CSSC[C@H](NC(=O)CCCCCNC(=O)[C@H](CNC(=O)[C@H](CCCNC(=N)N)NC(=O)[C@H](Cc1c[nH]c2ccccc12)NC(=O)[C@H](CCC(N)=O)NC(=O)[C@H](Cc1c[nH]c2ccccc12)NC(=O)[C@H](CCCNC(=N)N)NC(=O)[C@@H](N)CCCNC(=N)N)NC(=O)[C@H](CCCNC(=N)N)NC(=O)[C@H](Cc1c[nH]c2ccccc12)NC(=O)[C@H](CCC(N)=O)NC(=O)[C@H](Cc1c[nH]c2ccccc12)NC(=O)[C@H](CCCNC(=N)N)NC(=O)[C@@H](N)CCCNC(=N)N)C(N)=O)C(N)=O [LBT-1] (I: H-RRWQWR[Dap][Ahx]C-NH2 / II: H-RRWQWR[Dap][Ahx]C-NH2 / III: H-RRWQWR / IV: H-RRWQWR; amide I:7-III:C, II:7-IV:C; disulfide I:9-II:9; N-terminus and C-terminus assumed)
[1]
  TNFα induction by peptide alone: minimal but significant
[2]
  LC99.9: 0.94 µM
